According to patent US20260273076A1, “PHARMACEUTICAL COMPOSITIONS AND METHOD OF TREATMENT OF METASTATIC AND OTHER CANCERS” (Favorite Pharmaceuticals, priority 2023, published 2026):
Like-named read-outs stand apart in the source and are kept apart here.

Tests used:
[1] = tested on: HCT-116 cells; details: HCT-116 2-D, 72 hours
Experimental: Cells were incubated for 72 hours in a 37° C./5% CO2 incubator. […] At the conclusion of the 72-hour timepoint, cells were labeled with 6 μL/mL MitoTracker Deep Red and 1:250 Viability Dye.
Following labeling, cells were fixed in 10% neutral buffer formalin and permeabilized with 0.2% Triton X-100 in 1×PBS. Cells were then labeled with 1:500 Hoechst 33342 Ready Flow™ Reagent And 5 μL/mL Alexa Fluor 488 phalloidin.
Cells were then imaged at 20× widefield using a Molecular Devices ImageXpress Micro Confocal High-Content imaging platform. The scan laser/dichromic settings were tuned for 405, 488, 647, and 730 nm excitation wavelengths. Images were acquired and saved as 16-bit 2048×2048 TIF files for further processing. A grid of the sites at well centers was acquired during image capture.
The images were then analyzed using nuclear, phalloidin, and MitoTracker Channels. The number of cells was determined for each. Viable and non-viable cells were determined using colocalization of the nuclear channel and the viability dye images after thresholding. Phalloidin and MitoTracker cell object intensity distributions were quantified using cellular objects positive for phalloidin and MitoTracker. Statistical analysis was performed using GraphPad Prism statistical software. Nonlinear regression was used as a curve fitting tool to determine compound efficacy.

[2] = tested on: human pancreatic cancer (BXPC3) cells
Experimental: In this example, human pancreatic cancer (BXPC3) cells were grown on microscope slides for 24 hours prior to administration of test articles. […] Imaging was at 10× with photographs taken once every five minutes.
The timeline proceeds from left to right.

[3] = tested on: BXPC3 cells
From the text: Molecular crowding occurs when high concentrations of macromolecules reduce the volume of solvent available for other molecules in the solution, effecting the properties of cellular water. […] An increase in dry mass on addition of drug to the cells reflects uptake of the conjugate into the intracellular space. […] The method has been used to evaluate a dose response relationship and the characteristic response patterns of specific cell types to selected polyethylene glycol fatty acid conjugated structures.

[4] = tested on: human pancreatic cancer (BX PC3) cells; details: 200 micromolar, 24 hours
[5] = tested on: A549, HL-60, Raji B, Panc-1, and PC3 cancer cell lines; details: 4-5 h period, 5 cell lines
[6] = tested on: PDX derived cell line models (pancreatic cancer patients) in co-culture with human dermal fibroblasts; experiment: Cypre 3D Oncology in vitro patient-derived xenograft (PDX) Panel (Example 11); assay type: cell-based; details: treated four days, 5 patients
Experimental: In this example, a Cypre PDX assay was carried out in 5 different pancreatic cancer patients using 5 test compounds. […] The endpoint from this assay was tumor size and DRAQ7 staining.
PDX Tumor cells were expanded in 2D cell culture and then grown in 3D hydrogels, co-embedded with human dermal fibroblasts (HDF). […] After, 3D assays were stained with Hoechst and DRAQ7, fixed, and analyzed using a high content imager and proprietary image analysis software.

[7] = tested on: HCT-116 spheroids; experiment: HCT-116 spheroid viability / mitochondrial staining, high-content imaging (Example 1); assay type: cell-based; details: 72 hours
Experimental: Monolaurin was also similarly compared as a non-pegylated Lauric acid control.
HCT-116 cells were cultured according to ATCC guidelines and spheroids containing the cells were incubated in plate maps. […] After 72 hours of incubation, the images were taken at 10× with a 25-step z-stack in […] on a Molecular Devices imager.
On the day of dosing, C12 (C12=C12-Ether-PEG-1000), C-18 (C18=C18-amide-PEG-1000) and monolaurin were reconstituted in DMSO to make stock solutions of 60 mM. Lauric Acid and Polyethylene Glycol were also reconstituted in DMSO to make stock solutions of 120 mM. C-12, C-18 and monolaurin stock solutions were then serially diluted at half-log steps in DMSO and then diluted 100× in maintenance media. Lauric Acid and monomethoxy polyethylene glycol MW 1000 (PEG) were serially diluted in DMSO and then diluted 200× in maintenance media. Dosing done according to manufacturer's protocol.
DMSO concentrations were kept consistent across all wells at 0.5%. Following dosing, Plate 1 & 2 were incubated in a 37° C., 5% CO2 incubator for 72 hours. Plate 1 was removed from incubation between 60 and 180 min timepoints for imaging. Well A05 in Plate 1 was imaged in bright field at 10× while incubated in the imager at 37° C. Images were taken at 5-minute intervals for 120 mins. Following imaging, Plate 1 was immediately placed back into 37° C., 5% C02 incubator. […]

polyethylene glycol octadecyl ether [C18-Ether-PEG-1000]
MitoTracker intensities [1]: modest effect
concentration at which total cell death / death of all the cells occurred [1]: 50 µM
effects on cell viability [1]: strong effects on cell viability
effect on cells ([2]; 100 μM and 200 μM, 24 hours of incubation): drastic with both concentrations
cell kill at lower vs higher concentration ([2]; 100 μM vs 200 μM, 24 hours): less cell kill at the lower concentration
effect on a cluster of cells ([2]; 200 μM, 1-hour period): membrane disruption and cell death
time to cell fragmentation after dosing ([2]; 200 uM, single cell): ≤ 60 min
time post dosing to membrane disruption leading to cell death [3]: ≤ 40 min
drop of cell mass ([3]; first study (FIG. 17A)): 3 fold
time post dosing of phase drop in dry mass ([3]; first study (FIG. 17A)): 30 to 50 min
cell mass decrease, factor ([3]; repeat study (FIG. 17D)): 2
time of major phase drop after the addition of the drug ([3]; repeat study (FIG. 17D)): about 25 minutes
number of cells in clusters vs no drug control [4]: significantly reduced
cell death ([5]; 50 μM): 80%
cell death ([5]; 100 μM): 100%

CCCCCCCCCCCCCCCCCCNc1c(NCCOCCOCCOCCOCCOCCOCCOCCOCCOCCOCCOCCOCCOCCOCCOCCOCCOCCOCCOCCOCCOCCOC)c(=O)c1=O [C18-Squaramide-PEG-1000, 3-((2,5,8,11,14,17,20,23,26,29,32,35,38,41,44,47,50,53,56,59,62,65-docosaoxa-heptahexacontan-67-yl)amino)-4-(octadecylamino)cyclobut-3-ene-1,2-dione]
Tumor Total area: activity in comparison [6]: similarity in activity

CCCCCCCCCCCC(=O)O [Lauric Acid]
effect on cell viability, treatment vs control [7]: no difference between treatment and control

polyethylene glycol octadecyl ether [C18-Ether-PEG-5000]
MitoTracker intensities [1]: no effects
concentration at which total cell death / death of all the cells occurred [1]: 100 µM
cell destruction vs no drug control ([2]; 300 μM, 24 hours of incubation): completely destroyed
effect on existing cell mass / clusters ([2]; 300 μM, after 19 hours): dissociation of the accumulated mass and loss of cellular motility and death
kill kinetic ([2]; BXPC3, 300 μM (Example 3)): 19 h
DRAQ7 cell death assay: activity in comparison with standard of care [6]: equal to standard of care
Tumor Total area: activity in comparison [6]: equal to standard of care
